From US12398107B2, “Fungicidal nitroanilino substituted pyrazoles” (FMC Corporation, priority 2018, dated 2025)

Columns and labels:
Assay type in all cases: in vivo
[1] = tested on: Blumeria graminis f. sp. tritici; assay: Test C: wheat powdery mildew, preventive spray on wheat seedlings; conditions: rated after 8 days, 100 = 100% disease control, 0 = no control; for Test C disease control rating (wheat powdery mildew) / pest or weed control at 50 ppm: 50 ppm
Method in brief: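 Compound dissolved in acetone (3% of final volume), then suspended in 50/50 acetone/water with 250 ppm PEG400 and sprayed to run-off on wheat seedlings. Inoculated next day with B. graminis f. sp. tritici spore dust, kept 8 days at 20° C; visual rating, 100 = full control, 0 = none, relative to controls.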

[2] = tested on: Puccinia recondita f. sp. tritici; assay: Test B: wheat leaf rust, preventive spray on wheat seedlings; conditions: 100 = 100% disease control, 0 = no control relative to controls; for Test B disease control rating (wheat leaf rust) / pest or weed control at 50 ppm: 50 ppm
Method in brief: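 Compounds in acetone/water (50/50) with 250 ppm PEG400, sprayed to run-off on wheat seedlings at stated ppm; inoculated next day with P. recondita spores. Held 24 h saturated at 20° C., then 7 days in growth chamber at 20° C.; rating 0–100 = % disease control vs controls.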

Phakopsora pachyrhizi = assay: Test D: Asian soybean rust, preventive spray on soybean seedlings; conditions: 100 = 100% disease control, 0 = no control; for Test D disease control rating (Asian soybean rust) / pest or weed control at 50 ppm: 50 ppm
Method in brief: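 Soybean seedlings sprayed to run-off with compound suspension (ppm, in 50/50 acetone/water with 250 ppm PEG400), inoculated next day with P. pachyrhizi spores, held 24 h saturated at 22°C then 8 days at 22°C. Visual rating 0-100% disease control relative to controls.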

Botrytis cinerea = assay: Test E: tomato Botrytis, preventive spray on tomato seedlings; conditions: 100 = 100% disease control, 0 = no control; for Test E disease control rating (tomato Botrytis) / pest or weed control at 50 ppm: 50 ppm
Method in brief: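 Tomato seedlings sprayed to run-off with compound (ppm) in acetone/water with 250 ppm PEG400, then inoculated next day with B. cinerea spores. Held 48 h at 20 °C in saturated atmosphere, then 3 days at 24 °C. Visual rating 0–100% disease control relative to untreated controls.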

Septoria tritici = assay: Test A: wheat leaf blotch, preventive spray on wheat seedlings; conditions: 100 = 100% disease control, 0 = no control relative to controls; for Test A disease control rating (wheat leaf blotch) / pest or weed control at 50 ppm: 50 ppm
Method in brief: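 Compounds were suspended in acetone/water (50/50) with 250 ppm PEG400 and sprayed to run-off on wheat seedlings. The next day the seedlings were inoculated with Septoria tritici spores, held 48 h at 24 °C in saturated humidity, then 17 days at 20 °C. Disease control was rated 0–100 relative to controls.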

Alternaria solani = assay: Test F: tomato early blight, preventive spray on tomato seedlings; conditions: 100 = 100% disease control, 0 = no control; for Test F disease control rating (tomato early blight) / pest or weed control at 50 ppm: 50 ppm
Method in brief: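 Compounds in acetone/water (50/50) with 250 ppm PEG400, dosed in ppm, sprayed to run-off on tomato seedlings; next day inoculated with A. solani spores. Held 48 h saturated at 27° C, then 3 days at 20° C; visual rating 0–100% disease control relative to controls.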

[3] = Blumeria graminis, 192 h, read-out: Test C disease control rating (wheat powdery mildew)
[4] = read-out: Test B disease control rating (wheat leaf rust)
[5] = Phakopsora pachyrhizi, read-out: Test D disease control rating (Asian soybean rust)
[6] = Botrytis cinerea, read-out: Test E disease control rating (tomato Botrytis)
[7] = Zymoseptoria tritici, read-out: Test A disease control rating (wheat leaf blotch)
[8] = Alternaria solani, read-out: Test F disease control rating (tomato early blight)

## Cc1cccc([N+](=O)[O-])c1Nc1c(-c2ccc(F)cc2Cl)c(C)nn1C [Compound 117]
[1]
  Test C disease control rating (wheat powdery mildew): 95%
[2]
  Test B disease control rating (wheat leaf rust): 100%
Phakopsora pachyrhizi
  Test D disease control rating (Asian soybean rust): 0%
Botrytis cinerea
  Test E disease control rating (tomato Botrytis): 99%
Septoria tritici
  Test A disease control rating (wheat leaf blotch): 99%
Alternaria solani
  Test F disease control rating (tomato early blight): 76%

## Cc1nn(C)c(Nc2c(F)cccc2[N+](=O)[O-])c1-c1ccc(F)cc1F [Compound 118, 4-(2,4-difluorophenyl)-N-(2-fluoro-6-nitrophenyl)-1,3-dimethyl-1H-pyrazol-5-amine]
[1]; Blumeria graminis, 192 h, 10 ppm, read-out: Test C disease control rating (wheat powdery mildew)
  pest or weed control at 10 ppm: 27%
[1]; [3]
  pest or weed control at 50 ppm: 98%
[2]; 10 ppm, read-out: Test B disease control rating (wheat leaf rust)
  pest or weed control at 10 ppm: 80%
[2]; [4]
  pest or weed control at 50 ppm: 100%
Phakopsora pachyrhizi; Phakopsora pachyrhizi, 10 ppm, read-out: Test D disease control rating (Asian soybean rust)
  pest or weed control at 10 ppm: 0%
Phakopsora pachyrhizi; [5]
  pest or weed control at 50 ppm: 0%
Botrytis cinerea; Botrytis cinerea, 10 ppm, read-out: Test E disease control rating (tomato Botrytis)
  pest or weed control at 10 ppm: 99%
Botrytis cinerea; [6]
  pest or weed control at 50 ppm: 100%
Septoria tritici; Zymoseptoria tritici, 10 ppm, read-out: Test A disease control rating (wheat leaf blotch)
  pest or weed control at 10 ppm: 100%
Septoria tritici; [7]
  pest or weed control at 50 ppm: 100%
Alternaria solani; Alternaria solani, 10 ppm, read-out: Test F disease control rating (tomato early blight)
  pest or weed control at 10 ppm: 60%
Alternaria solani; [8]
  pest or weed control at 50 ppm: 99%

## COc1ccc(Nc2c(-c3ccc(F)cc3Cl)c(C)nn2C)c([N+](=O)[O-])c1 [Compound 119]
[1]
  Test C disease control rating (wheat powdery mildew): 99%
[2]
  Test B disease control rating (wheat leaf rust): 100%
Phakopsora pachyrhizi
  Test D disease control rating (Asian soybean rust): 92%
Botrytis cinerea
  Test E disease control rating (tomato Botrytis): 100%
Septoria tritici
  Test A disease control rating (wheat leaf blotch): 100%
Alternaria solani
  Test F disease control rating (tomato early blight): 99%

## Cc1nn(C)c(Nc2c(F)cc(F)cc2[N+](=O)[O-])c1-c1ccc(C#N)cc1Cl [Compound 120]
[1]
  Test C disease control rating (wheat powdery mildew): 89%
[2]
  Test B disease control rating (wheat leaf rust): 100%
Phakopsora pachyrhizi
  Test D disease control rating (Asian soybean rust): 44%
Botrytis cinerea
  Test E disease control rating (tomato Botrytis): 100%
Septoria tritici
  Test A disease control rating (wheat leaf blotch): 100%
Alternaria solani
  Test F disease control rating (tomato early blight): 99%

## Cc1nn(C)c(Nc2c(F)cc(Cl)cc2[N+](=O)[O-])c1-c1ccc(F)cc1Cl [Compound 121, N-(4-chloro-2-fluoro-6-nitrophenyl)-4-(2-chloro-4-fluorophenyl)-1,3-dimethyl-1H-pyrazol-5-amine]
[1]; [3]
  pest or weed control at 50 ppm: 100%
[2]; [4]
  pest or weed control at 50 ppm: 100%
Phakopsora pachyrhizi; [5]
  pest or weed control at 50 ppm: 99%
Botrytis cinerea; [6]
  pest or weed control at 50 ppm: 100%
Septoria tritici; [7]
  pest or weed control at 50 ppm: 100%
Alternaria solani; [8]
  pest or weed control at 50 ppm: 100%

## Cn1nc(C#N)c(-c2ccc(F)cc2Cl)c1Nc1c(F)cccc1[N+](=O)[O-] [Compound 122]
[1]
  Test C disease control rating (wheat powdery mildew): 94%
[2]
  Test B disease control rating (wheat leaf rust): 100%
Phakopsora pachyrhizi
  Test D disease control rating (Asian soybean rust): 0%
Botrytis cinerea
  Test E disease control rating (tomato Botrytis): 100%
Septoria tritici
  Test A disease control rating (wheat leaf blotch): 100%
Alternaria solani
  Test F disease control rating (tomato early blight): 99%

## Cc1nn(C)c(Nc2c(Cl)cccc2[N+](=O)[O-])c1-c1ccc(C#N)cc1Cl [Compound 123]
[1]
  Test C disease control rating (wheat powdery mildew): 81%
[2]
  Test B disease control rating (wheat leaf rust): 97%
Phakopsora pachyrhizi
  Test D disease control rating (Asian soybean rust): 0%
Botrytis cinerea
  Test E disease control rating (tomato Botrytis): 100%
Septoria tritici
  Test A disease control rating (wheat leaf blotch): 100%
Alternaria solani
  Test F disease control rating (tomato early blight): 66%

## COc1ccc(Nc2c(-c3ccc(C#N)cc3Cl)c(C)nn2C)c([N+](=O)[O-])c1 [Compound 124]
[1]
  Test C disease control rating (wheat powdery mildew): 99%
[2]
  Test B disease control rating (wheat leaf rust): 100%
Phakopsora pachyrhizi
  Test D disease control rating (Asian soybean rust): 25%
Botrytis cinerea
  Test E disease control rating (tomato Botrytis): 100%
Septoria tritici
  Test A disease control rating (wheat leaf blotch): 100%
Alternaria solani
  Test F disease control rating (tomato early blight): 99%

## Cc1nn(C)c(Nc2c(Br)cccc2[N+](=O)[O-])c1-c1ccc(C#N)cc1Cl [Compound 125]
[1]
  Test C disease control rating (wheat powdery mildew): 0%
[2]
  Test B disease control rating (wheat leaf rust): 96%
Phakopsora pachyrhizi
  Test D disease control rating (Asian soybean rust): 0%
Botrytis cinerea
  Test E disease control rating (tomato Botrytis): 99%
Septoria tritici
  Test A disease control rating (wheat leaf blotch): 100%
Alternaria solani
  Test F disease control rating (tomato early blight): 9%

## Cc1nn(C)c(Nc2ccccc2[N+](=O)[O-])c1-c1ccc(F)cc1Cl [Compound 126]
[1]
  Test C disease control rating (wheat powdery mildew): 96%
[2]
  Test B disease control rating (wheat leaf rust): 85%
Phakopsora pachyrhizi
  Test D disease control rating (Asian soybean rust): 0%
Botrytis cinerea
  Test E disease control rating (tomato Botrytis): 100%
Septoria tritici
  Test A disease control rating (wheat leaf blotch): 98%
Alternaria solani
  Test F disease control rating (tomato early blight): 68%

## Cc1cc(F)c(Nc2c(-c3ccc(C#N)cc3Cl)c(C)nn2C)c([N+](=O)[O-])c1 [Compound 127, 3-chloro-4-[5-[(2-fluoro-4-methyl-6-nitrophenyl)amino]-1,3-dimethyl-1H-pyrazol-4-yl]benzonitrile]
[1]; [3]
  pest or weed control at 50 ppm: 92%
[2]; [4]
  pest or weed control at 50 ppm: 99%
Phakopsora pachyrhizi; [5]
  pest or weed control at 50 ppm: 96%
Botrytis cinerea; [6]
  pest or weed control at 50 ppm: 100%
Septoria tritici; [7]
  pest or weed control at 50 ppm: 100%
Alternaria solani; [8]
  pest or weed control at 50 ppm: 100%

## CCc1nn(C)c(Nc2c(Cl)cc(Br)cc2[N+](=O)[O-])c1-c1ccc(F)cc1Cl [Compound 128]
[1]
  Test C disease control rating (wheat powdery mildew): 96%
[2]
  Test B disease control rating (wheat leaf rust): 98%
Phakopsora pachyrhizi
  Test D disease control rating (Asian soybean rust): 31%
Botrytis cinerea
  Test E disease control rating (tomato Botrytis): 99%
Septoria tritici
  Test A disease control rating (wheat leaf blotch): 100%
Alternaria solani
  Test F disease control rating (tomato early blight): 33%

## Cc1nn(C)c(Nc2cc(Cl)ccc2[N+](=O)[O-])c1-c1ccc(F)cc1Cl [Compound 130]
[1]
  Test C disease control rating (wheat powdery mildew): 20%
[2]
  Test B disease control rating (wheat leaf rust): 86%
Phakopsora pachyrhizi
  Test D disease control rating (Asian soybean rust): 0%
Botrytis cinerea
  Test E disease control rating (tomato Botrytis): 85%
Septoria tritici
  Test A disease control rating (wheat leaf blotch): 85%
Alternaria solani
  Test F disease control rating (tomato early blight): 0%

## Cc1nn(C)c(Nc2c(F)cc(Cl)cc2[N+](=O)[O-])c1-c1ccc(F)cc1Br [Compound 131]
[1]
  Test C disease control rating (wheat powdery mildew): 99%
[2]
  Test B disease control rating (wheat leaf rust): 100%
Phakopsora pachyrhizi
  Test D disease control rating (Asian soybean rust): 80%
Botrytis cinerea
  Test E disease control rating (tomato Botrytis): 99%
Septoria tritici
  Test A disease control rating (wheat leaf blotch): 100%
Alternaria solani
  Test F disease control rating (tomato early blight): 100%

## Cc1nn(C)c(Nc2c(F)cc(Br)cc2[N+](=O)[O-])c1-c1ccc(Cl)cc1Cl [Compound 132]
[1]
  Test C disease control rating (wheat powdery mildew): 47%
[2]
  Test B disease control rating (wheat leaf rust): 98%
Phakopsora pachyrhizi
  Test D disease control rating (Asian soybean rust): 0%
Botrytis cinerea
  Test E disease control rating (tomato Botrytis): 99%
Septoria tritici
  Test A disease control rating (wheat leaf blotch): 100%
Alternaria solani
  Test F disease control rating (tomato early blight): 96%
